Measurements taken from patent publication US11739099B2 (CURIA IP HOLDINGS, LLC, priority 2014, dated 2023).

What was measured:
[1] = Solid-state change of Rifaximin α form on wet granulation with purified water; type: physicochemical; settings: purified water as binding agent
[2] = Solid-state stability of the α/β ratio after dry granulation and tableting, DRX (powder); type: physicochemical; settings: tablets before coating, ground in a mortar
[3] = literature studies (Cellai et al. 1983; Viscomi et al. 2008); cited from earlier work

CO[C@H]1/C=C/O[C@@]2(C)Oc3c(C)c(O)c4c(O)c(c5c(nc6cc(C)ccn65)c4c3C2=O)NC(=O)/C(C)=C\C=C\[C@H](C)[C@H](O)[C@@H](C)[C@@H](O)[C@@H](C)[C@H](OC(C)=O)[C@@H]1C [Rifaximin α form, Rifaximin]
Amount of Rifaximin β form afforded by wet granulation [1]: < 50%

Rifaximin [Rifaximin α/β polymorphic mixture 88/12]
Relative ratio between the α/β polymorphic form after dry granulation and tableting [2]: stable

Rifaximin [δ]
Absorption from the intestine [3]: could be significantly absorbed
